# PubChem BioAssay AID1918946 (Molecular Pharmacology Branch, DTP, NCI, 2023)
# System: 885512-296-R-J2-PDC complex spheroid viability
# Experiment: Anticancer human tumor 885512-296-R-J2-PDC patient-derived breast carcinoma cell line growth inhibition
# Conditions: for IC50: curve of first compound; for viability, T/C: stronger effect = lower value
# Summary of the method: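 Drug combinations with the LSD1 inhibitor iadademstat tested on tumor cells co-cultured as spheroids with endothelial cells and mesenchymal stem cells. Concentrations descended in half-log increments from clinical Cmax or 10 microM.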
# [1] = second compound 0.1 µM, first compound 0.0316 µM
# [2] = second compound 0.1 µM, first compound 0.1 µM
# [3] = second compound 0.1 µM, first compound 0.316 µM
# [4] = second compound 0.1 µM, first compound 1 µM
# [5] = second compound 0.1 µM, first compound 3.16 µM
# [6] = second compound 0.1 µM, first compound 10 µM
# [7] = second compound 0.316 µM, first compound 0.0316 µM
# [8] = second compound 0.316 µM, first compound 0.1 µM
# [9] = second compound 0.316 µM, first compound 0.316 µM
# [10] = second compound 0.316 µM, first compound 1 µM
# [11] = second compound 0.316 µM, first compound 3.16 µM
# [12] = second compound 0.316 µM, first compound 10 µM
# [13] = second compound 1 µM, first compound 0.0316 µM
# [14] = second compound 1 µM, first compound 0.1 µM
# [15] = second compound 1 µM, first compound 0.316 µM
# [16] = second compound 1 µM, first compound 1 µM
# [17] = second compound 1 µM, first compound 3.16 µM
# [18] = second compound 1 µM, first compound 10 µM
# [19] = second compound 3.16 µM, first compound 0.0316 µM
# [20] = second compound 3.16 µM, first compound 0.1 µM
# [21] = second compound 3.16 µM, first compound 0.316 µM
# [22] = second compound 3.16 µM, first compound 1 µM
# [23] = second compound 3.16 µM, first compound 3.16 µM
# [24] = second compound 3.16 µM, first compound 10 µM
# [25] = second compound 10 µM, first compound 0.0316 µM
# [26] = second compound 10 µM, first compound 0.1 µM
# [27] = second compound 10 µM, first compound 0.316 µM
# [28] = second compound 10 µM, first compound 1 µM
# [29] = second compound 10 µM, first compound 3.16 µM
# [30] = second compound 10 µM, first compound 10 µM
# [31] = second compound 0.1 µM, first compound 0.00316 µM
# [32] = second compound 0.1 µM, first compound 0.01 µM
# [33] = second compound 0.316 µM, first compound 0.00316 µM
# [34] = second compound 0.316 µM, first compound 0.01 µM
# [35] = second compound 1 µM, first compound 0.00316 µM
# [36] = second compound 1 µM, first compound 0.01 µM
# [37] = second compound 3.16 µM, first compound 0.00316 µM
# [38] = second compound 3.16 µM, first compound 0.01 µM
# [39] = second compound 10 µM, first compound 0.00316 µM
# [40] = second compound 10 µM, first compound 0.01 µM
# 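Also: spheroids exposed to agents for 7 days before viability read.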
Structure (SMILES),IC50 (second compound 0.1 µM) [nM],IC50 (second compound 0.316 µM) [nM],IC50 (second compound 1 µM) [nM],IC50 (second compound 3.16 µM) [nM],IC50 (second compound 10 µM) [nM],"viability, T/C [1] [%]","viability, T/C [2] [%]","viability, T/C [3] [%]","viability, T/C [4] [%]","viability, T/C [7] [%]","viability, T/C [8] [%]","viability, T/C [9] [%]","viability, T/C [10] [%]","viability, T/C [13] [%]","viability, T/C [14] [%]","viability, T/C [15] [%]","viability, T/C [16] [%]","viability, T/C [19] [%]","viability, T/C [20] [%]","viability, T/C [21] [%]",other results
CC(C)c1c(-c2ccccc2)nc2c(C#N)c[nH]n2c1=O + NC1CC1c1ccc(-c2cccc(O)c2)cc1,> 10000,> 10000,> 10000,> 10000,6760,120,128,127,118,140,124,128,128,132,121,118,118,138,131,118,"viability, T/C [5]: 119%; viability, T/C [6]: 84.8%; viability, T/C [11]: 137%; viability, T/C [12]: 87.4%; viability, T/C [17]: 125%; viability, T/C [18]: 74.9%; viability, T/C [22]: 108%; viability, T/C [23]: 124%; viability, T/C [24]: 71.9%; viability, T/C [25]: 88%; viability, T/C [26]: 88.3%; viability, T/C [27]: 88.5%; viability, T/C [28]: 70.1%; viability, T/C [29]: 72.9%; viability, T/C [30]: 40.1%"
CC1COCCN1c1cc(-c2ccnn2C)c2ccnc(-c3ccn[nH]3)c2n1 (stereo not given) + NC1CC1c1ccc(-c2cccc(O)c2)cc1,< 3.16,< 3.16,< 3.16,< 3.16,< 3.16,2.05,1.94,2.98,3.66,2.44,2,3.18,4.22,2.3,2.21,3.06,4.25,1.89,2.1,2.93,"viability, T/C [31]: 3.29%; viability, T/C [32]: 2.63%; viability, T/C [33]: 4.19%; viability, T/C [34]: 3.06%; viability, T/C [35]: 3.96%; viability, T/C [36]: 3.23%; viability, T/C [37]: 2.66%; viability, T/C [38]: 2.58%; viability, T/C [22]: 4.29%; viability, T/C [39]: 3.44%; viability, T/C [40]: 2.73%; viability, T/C [25]: 1.93%; viability, T/C [26]: 2.12%; viability, T/C [27]: 2.49%; viability, T/C [28]: 4.01%"
COc1ccc([C@@H](O)c2cc(-c3ncnc4cc(N5CCOCC5)ccc34)c(F)cc2Cl)nn1 + NC1CC1c1ccc(-c2cccc(O)c2)cc1,3510,3860,3330,1450,448,126,127,94.4,86.9,111,121,103,94.7,98.3,109,87.9,78.9,108,104,71.6,"viability, T/C [5]: 54.5%; viability, T/C [6]: 12.9%; viability, T/C [11]: 57.6%; viability, T/C [12]: 11.8%; viability, T/C [17]: 52.2%; viability, T/C [18]: 11.8%; viability, T/C [22]: 58.8%; viability, T/C [23]: 35.8%; viability, T/C [24]: 9.34%; viability, T/C [25]: 78.4%; viability, T/C [26]: 72.1%; viability, T/C [27]: 50.6%; viability, T/C [28]: 39.7%; viability, T/C [29]: 25.5%; viability, T/C [30]: 6.59%"
O=C(C=Cn1cnc(-c2cc(C(F)(F)F)cc(C(F)(F)F)c2)n1)NNc1cnccn1 + NC1CC1c1ccc(-c2cccc(O)c2)cc1,< 3.16,< 3.16,< 3.16,< 3.16,< 3.16,1.78,0.68,0.55,0.47,1.98,0.67,0.5,0.4,2.51,0.72,0.52,0.58,2.71,0.8,0.52,"viability, T/C [31]: 22.8%; viability, T/C [32]: 11.1%; viability, T/C [33]: 17.4%; viability, T/C [34]: 11.5%; viability, T/C [35]: 19%; viability, T/C [36]: 10.3%; viability, T/C [37]: 13.6%; viability, T/C [38]: 10.3%; viability, T/C [22]: 0.63%; viability, T/C [39]: 14.8%; viability, T/C [40]: 8.29%; viability, T/C [25]: 2.21%; viability, T/C [26]: 0.82%; viability, T/C [27]: 0.71%; viability, T/C [28]: 0.78%"
Nc1ncn(C2CC(O)C(CO)O2)c(=O)n1 (stereo not given) + NC1CCC(NC2CC2c2ccccc2)CC1,30.8,29.9,28.3,27.1,19.8,46.9,25.2,12.7,13.6,53,24.6,14.8,15.4,47,30.8,14.5,16.1,44.4,28.9,19.8,"viability, T/C [31]: 91.3%; viability, T/C [32]: 91.5%; viability, T/C [33]: 105%; viability, T/C [34]: 75.5%; viability, T/C [35]: 101%; viability, T/C [36]: 74.1%; viability, T/C [37]: 80.1%; viability, T/C [38]: 72.6%; viability, T/C [22]: 16.1%; viability, T/C [39]: 74.8%; viability, T/C [40]: 59%; viability, T/C [25]: 45.4%; viability, T/C [26]: 21.4%; viability, T/C [27]: 15.6%; viability, T/C [28]: 11.5%"
